How the values were obtained:
[1] = target: T1, Adenosine receptor A1 (Homo sapiens) (UniProt P30542); assay: Displacement of [3H]R-PIA from human recombinant adenosine A1 receptor expressed in CHO cells at 10 uM after 60 mins by liquid scintillation counting; format: cell-based
T1 sequence (whole entry): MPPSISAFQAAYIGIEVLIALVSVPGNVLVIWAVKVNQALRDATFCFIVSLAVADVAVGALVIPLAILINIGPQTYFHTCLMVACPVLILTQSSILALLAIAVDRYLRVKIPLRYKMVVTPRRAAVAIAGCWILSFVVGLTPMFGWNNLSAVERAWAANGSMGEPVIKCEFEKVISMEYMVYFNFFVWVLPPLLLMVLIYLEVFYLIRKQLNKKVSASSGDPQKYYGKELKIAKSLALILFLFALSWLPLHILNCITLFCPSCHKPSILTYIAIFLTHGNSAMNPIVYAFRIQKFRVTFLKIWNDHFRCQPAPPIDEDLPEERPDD

Adenosine receptor A2a [2] = target: T2, Adenosine receptor A2a (Homo sapiens, UniProt P29274); assay: Displacement of [3H]CGS21680 from human recombinant adenosine A2A receptor expressed in HEK293 cells at 10 uM after 60 mins by liquid scintillation counting; format: cell-based
T2 sequence (P29274 whole entry): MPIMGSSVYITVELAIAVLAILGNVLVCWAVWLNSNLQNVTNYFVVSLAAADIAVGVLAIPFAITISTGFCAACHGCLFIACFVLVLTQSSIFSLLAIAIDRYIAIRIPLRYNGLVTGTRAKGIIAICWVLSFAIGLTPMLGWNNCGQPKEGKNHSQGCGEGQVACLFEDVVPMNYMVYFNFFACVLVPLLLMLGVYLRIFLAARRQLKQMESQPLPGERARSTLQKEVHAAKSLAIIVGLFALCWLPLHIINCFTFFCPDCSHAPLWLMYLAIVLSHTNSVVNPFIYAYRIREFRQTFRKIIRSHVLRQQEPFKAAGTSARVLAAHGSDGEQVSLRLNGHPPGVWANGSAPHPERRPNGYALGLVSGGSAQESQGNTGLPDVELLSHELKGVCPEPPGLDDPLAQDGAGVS

[3] = target: T3, Adenosine receptor A1 (Mus musculus) (UniProt Q60612); assay: Displacement of from mouse adenosine A1 receptor expressed in HEK293 cells at 10 uM after 60 mins by liquid scintillation counting; set-up: reference not given here
T3 sequence (whole entry): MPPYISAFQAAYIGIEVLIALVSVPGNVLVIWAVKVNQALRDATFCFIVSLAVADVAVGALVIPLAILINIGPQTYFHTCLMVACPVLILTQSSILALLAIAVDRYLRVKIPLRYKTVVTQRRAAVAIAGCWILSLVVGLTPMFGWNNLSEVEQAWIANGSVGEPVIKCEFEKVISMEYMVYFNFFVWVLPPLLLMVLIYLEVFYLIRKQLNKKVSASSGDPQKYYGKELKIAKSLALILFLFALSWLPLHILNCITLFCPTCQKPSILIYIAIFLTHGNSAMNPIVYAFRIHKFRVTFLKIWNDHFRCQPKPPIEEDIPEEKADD

[4] = target: Adenosine receptor A2a (Mus musculus) (UniProt Q60613); assay: Displacement of [3H]CGS21680 from mouse adenosine A2A receptor expressed in HEK293 cells at 10 uM after 60 mins by liquid scintillation counting
Chain of Adenosine receptor A2a (Mus musculus) (Q60613 whole entry): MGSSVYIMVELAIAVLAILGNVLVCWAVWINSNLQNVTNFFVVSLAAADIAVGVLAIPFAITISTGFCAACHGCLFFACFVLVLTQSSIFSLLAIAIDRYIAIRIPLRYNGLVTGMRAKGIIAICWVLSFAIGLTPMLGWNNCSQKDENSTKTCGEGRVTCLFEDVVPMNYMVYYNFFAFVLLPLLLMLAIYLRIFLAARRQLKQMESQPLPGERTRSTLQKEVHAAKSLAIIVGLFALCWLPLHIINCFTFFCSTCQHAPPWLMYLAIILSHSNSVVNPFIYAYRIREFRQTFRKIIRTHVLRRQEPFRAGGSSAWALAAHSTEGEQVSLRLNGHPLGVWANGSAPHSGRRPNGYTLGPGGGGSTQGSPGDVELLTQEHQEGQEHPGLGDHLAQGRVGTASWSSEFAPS

[5] = target: T4, Adenosine receptor A3 (Homo sapiens) (UniProt P0DMS8); assay: Agonist activity at human recombinant adenosine A3 receptor expressed in CHO cells assessed as inhibition of forskolin-stimulated cAMP production at 10 uM incubated for 30 mins prior to forskolin-stimulation measured after 15 mins by enzyme immunoassay relative to NECA; format: functional, cell-based
T4 sequence (whole entry): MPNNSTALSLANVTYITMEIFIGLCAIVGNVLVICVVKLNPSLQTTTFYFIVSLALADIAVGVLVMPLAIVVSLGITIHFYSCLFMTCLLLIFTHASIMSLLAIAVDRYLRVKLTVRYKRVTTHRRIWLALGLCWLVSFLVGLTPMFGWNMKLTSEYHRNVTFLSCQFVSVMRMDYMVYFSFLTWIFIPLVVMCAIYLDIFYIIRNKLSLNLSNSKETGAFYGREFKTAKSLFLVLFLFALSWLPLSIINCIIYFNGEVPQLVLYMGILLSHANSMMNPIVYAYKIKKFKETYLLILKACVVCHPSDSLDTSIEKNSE

Adenosine receptor A3 = target: T5, Adenosine receptor A3 (Mus musculus, UniProt Q61618); assay: Displacement of [125I]I-AB-MECA from mouse adenosine A3 receptor expressed in HEK293 cells after 60 mins by liquid scintillation counting
T5 sequence (Q61618 whole entry): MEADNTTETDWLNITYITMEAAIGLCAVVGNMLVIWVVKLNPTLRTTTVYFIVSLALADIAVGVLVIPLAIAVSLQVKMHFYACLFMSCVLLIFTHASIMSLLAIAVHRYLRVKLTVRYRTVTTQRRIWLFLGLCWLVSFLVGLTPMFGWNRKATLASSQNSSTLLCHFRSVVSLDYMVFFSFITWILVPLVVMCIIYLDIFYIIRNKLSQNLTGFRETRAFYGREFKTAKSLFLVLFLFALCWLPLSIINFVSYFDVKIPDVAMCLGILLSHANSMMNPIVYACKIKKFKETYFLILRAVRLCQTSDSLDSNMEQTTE

[6] = Selectivity ratio of Ki for mouse adenosine A3 receptor to Ki for human recombinant adenosine A3 receptor
[7] = target: T6, Adenosine receptor A2b (Homo sapiens) (UniProt P29275); assay: Agonist activity at human adenosine A2B receptor by cAMP accumulation assay relative to NECA; format: functional
T6 sequence (whole entry): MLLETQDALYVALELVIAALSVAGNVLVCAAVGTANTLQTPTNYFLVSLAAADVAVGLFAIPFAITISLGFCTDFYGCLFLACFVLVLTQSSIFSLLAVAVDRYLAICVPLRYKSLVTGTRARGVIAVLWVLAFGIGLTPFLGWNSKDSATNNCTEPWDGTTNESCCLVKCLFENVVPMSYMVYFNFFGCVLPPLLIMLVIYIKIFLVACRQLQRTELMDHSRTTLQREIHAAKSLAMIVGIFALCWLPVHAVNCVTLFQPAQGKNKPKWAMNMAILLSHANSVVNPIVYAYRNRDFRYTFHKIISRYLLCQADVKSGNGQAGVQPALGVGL

Adenosine receptor A2a [8] = target: T2, Adenosine receptor A2a; assay: Displacement of [3H]CGS21680 from human recombinant adenosine A2A receptor expressed in HEK293 cells after 60 mins by liquid scintillation counting; format: cell-based

SMILES | inhibition [1] [%] | inhibition (Adenosine receptor A2a [2]) [%] | inhibition [3] [%] | inhibition [4] [%] | Efficacy [5] [%] | Ki (Adenosine receptor A3) [nM] | Ratio Ki [6] | Efficacy [7] [%] | Ki (Adenosine receptor A2a [8]) [µM]
CNC(=O)[C@@]12C[C@@H]1[C@@H](n1cnc3c(NCc4cccc(Cl)c4)nc(C#Cc4ccccc4Cl)nc31)[C@H](O)[C@@H]2O | 19 | 52 | 51 | 19 | 103 | 2.64 |  |  | 
CNC(=O)[C@@]12C[C@@H]1[C@@H](n1cnc3c(NC)nc(C#Cc4ccc(F)cc4)nc31)[C@H](O)[C@@H]2O | 21 | 19 | 29 | 0 | 80.3 | 37.7 | 70 |  | 
CNC(=O)[C@@]12C[C@@H]1[C@@H](n1cnc3c(NCc4cccc(Cl)c4)nc(C#Cc4cccc(C(=O)O)c4)nc31)[C@H](O)[C@@H]2O | 6 | 38 | 18 | 22 | 86.7 | 3.66 |  |  | 
CNC(=O)[C@@]12C[C@@H]1[C@@H](n1cnc3c(NC)nc(C#Cc4cccc(Cl)c4)nc31)[C@H](O)[C@@H]2O | 10 |  |  |  | 90.9 |  |  | 20 | 
CNC(=O)[C@@]12C[C@@H]1[C@@H](n1cnc3c(NC)nc(C#Cc4ccc(Cl)cc4)nc31)[C@H](O)[C@@H]2O | 14 | 30 |  |  | 97.4 |  |  |  | 
CNC(=O)[C@@]12C[C@@H]1[C@@H](n1cnc3c(NC)nc(C#Cc4cc5ccccc5c5ccccc45)nc31)[C@H](O)[C@@H]2O | 15 | 52 |  |  | 108 |  |  |  | 
CNC(=O)[C@@]12C[C@@H]1[C@@H](n1cnc3c(NC)nc(C#Cc4ccc(C(C)=O)cc4)nc31)[C@H](O)[C@@H]2O | 15 |  |  |  | 87.4 |  |  | 20 | 5.3
CNC(=O)[C@@]12C[C@@H]1[C@@H](n1cnc3c(NC)nc(C#Cc4ccc(C(C)(C)C)cc4)nc31)[C@H](O)[C@@H]2O | 23 | 7 |  |  | 78.4 |  |  |  | 
CNC(=O)[C@@]12C[C@@H]1[C@@H](n1cnc3c(NCc4cccc(Cl)c4)nc(C#Cc4ccc(F)cc4)nc31)[C@H](O)[C@@H]2O | 20 | 42 | 65 | 7 | 102 | 2.38 |  | 20 | 
CNC(=O)[C@@]12C[C@@H]1[C@@H](n1cnc3c(NC)nc(C#Cc4cc(F)cc(F)c4)nc31)[C@H](O)[C@@H]2O | 8 | 47 |  |  | 99.6 |  |  |  | 
CNC(=O)[C@@]12C[C@@H]1[C@@H](n1cnc3c(NCc4cccc(Cl)c4)nc(C#Cc4ccc5ccc6cccc7ccc4c5c67)nc31)[C@H](O)[C@@H]2O | 8 |  | 8 | 64 | 77.8 | 47.6 |  | 20 | 3.11
CNC(=O)[C@@]12C[C@@H]1[C@@H](n1cnc3c(NCc4cccc(Cl)c4)nc(C#Cc4ccc(-c5ccccc5)cc4)nc31)[C@H](O)[C@@H]2O | 2 | 0 | 41 | 6 | 89 | 10.8 | 3 |  | 
CCc1ccc(C#Cc2nc(NC)c3ncn([C@H]4[C@H](O)[C@H](O)[C@]5(C(=O)NC)C[C@H]45)c3n2)cc1 | 13 | 38 |  |  | 110 |  |  |  | 
CNC(=O)[C@@]12C[C@@H]1[C@@H](n1cnc3c(NC)nc(C#Cc4cccc(N)c4)nc31)[C@H](O)[C@@H]2O | 10 | 19 |  |  | 109 |  |  |  | 
CNC(=O)[C@@]12C[C@@H]1[C@@H](n1cnc3c(NC)nc(C#Cc4ccc(Br)cc4)nc31)[C@H](O)[C@@H]2O | 13 | 26 |  |  | 97.5 |  |  |  | 
CNC(=O)[C@@]12C[C@@H]1[C@@H](n1cnc3c(NC)nc(C#Cc4cccc5ccccc45)nc31)[C@H](O)[C@@H]2O | 25 | 34 |  |  | 94.6 |  |  |  | 
CNC(=O)[C@@]12C[C@@H]1[C@@H](n1cnc3c(NCc4cccc(Cl)c4)nc(C#Cc4cccc(Cl)c4)nc31)[C@H](O)[C@@H]2O | 4 |  | 35 | 55 | 91.5 | 2.39 |  | 20 | 1.74
CNC(=O)[C@@]12C[C@@H]1[C@@H](n1cnc3c(NC)nc(C#Cc4ccccc4)nc31)[C@H](O)[C@@H]2O | 13 | 14 |  |  |  |  |  |  | 
CNC(=O)[C@@]12C[C@@H]1[C@@H](n1cnc3c(NC)nc(C#Cc4ccc(-c5ccccc5)cc4)nc31)[C@H](O)[C@@H]2O | 21 | 29 |  |  | 110 |  |  |  | 
CNC(=O)[C@@]12C[C@@H]1[C@@H](n1cnc3c(NCc4cccc(I)c4)ncnc31)[C@H](O)[C@@H]2O |  |  |  |  | 100 |  |  |  | 
CNC(=O)[C@@]12C[C@@H]1[C@@H](n1cnc3c(NC)nc(C#Cc4ccccc4F)nc31)[C@H](O)[C@@H]2O | 21 | 17 |  |  | 97.7 |  |  |  | 
CNC(=O)[C@@]12C[C@@H]1[C@@H](n1cnc3c(NC)nc(C#Cc4ccccn4)nc31)[C@H](O)[C@@H]2O | 11 | 13 |  |  |  |  |  |  | 
CNC(=O)[C@@]12C[C@@H]1[C@@H](n1cnc3c(NC)nc(C#Cc4ccccc4Cl)nc31)[C@H](O)[C@@H]2O | 27 | 30 | 55 | 2 | 84.2 | 37.2 | 70 |  | 
CNC(=O)[C@@]12C[C@@H]1[C@@H](n1cnc3c(NCc4cccc(Cl)c4)nc(C#Cc4ccccc4)nc31)[C@H](O)[C@@H]2O | 20 | 27 | 50 | 2 | 101 |  |  |  | 
CNC(=O)[C@@]12C[C@@H]1[C@@H](n1cnc3c(NC)nc(C#Cc4ccc(F)c(F)c4)nc31)[C@H](O)[C@@H]2O | 6 | 6 |  |  | 108 |  |  |  | 
CNC(=O)[C@@]12C[C@@H]1[C@@H](n1cnc3c(NC)nc(C#Cc4cccc(F)c4)nc31)[C@H](O)[C@@H]2O | 12 | 10 |  |  | 95.8 |  |  |  | 
CNC(=O)[C@@]12C[C@@H]1[C@@H](n1cnc3c(NCc4cccc(Cl)c4)nc(C#Cc4ccc(F)c(F)c4)nc31)[C@H](O)[C@@H]2O (single isomer, unassigned) | 6 | 41 | 14 | 27 |  |  |  | 20 | 
